Square brackets hold non-standard residues; d marks the D form. Peptide text beside a SMILES is read from it.
Legend:
[1] = Cell viability, PrestoBlue assay; type: cell-based; settings: human
Protocol: The effect of the peptides on cell viability can be assessed in cultured cells using suitable assay of viability such as the PrestoBlue® assay (Thermo Fisher Scientific, Waltham, Mass.). Peptides were initially prepared as 10 mM stock in DMSO and tested at a final concentration of 10 μM (0.1% DMSO). […] PrestoBlue Assay Reagent was purchased from Thermo Fisher Scientific. A172 human brain glioblastoma cell line was purchased from American Type Culture Collection (Manassas, Va.). A172 cells were grown in DMEM supplemented with 10% FBS with 100 IU/ml penicillin and 100 μg/ml streptomycin. Cultures were maintained at 37° C. in a humidified atmosphere of 5% CO2/95% air. A172 cells were seeded at 8,000 cells per well on 96-well plates. […] Cell viability was determined using a PrestoBlue Assay reagent […] according to the manufacturer's instructions. Absorption for each sample well on the plate was measured using a Cytation 3 plate reader at 560 nm and 590 nm (BioTek, Winooski, Vt.). Activity was calculated relative to 0.1% DMSO untreated control. Treatment with 0.1% DMSO alone was used as the cell viability activity control. The relative standard deviation of the DMSO control was <5%.

Rat H-4-II-E Cells = assay: TBHP-induced reactive oxygen species (DCFDA); type: cell-based; settings: peptide 10 μM 18-20 hours, then TBHP 100 μM 1 hour; relative to TBHP control
Protocol: The protective or synergistic effect of the peptides on cellular levels of reactive oxygen species (ROS) induced by oxidative stress can be assessed using an assay of ROS in cultured cells exposed to a suitable oxidative stress. Peptides were initially prepared as 10 mM stock in DMSO and tested at a final concentration of 10 μM (0.1% DMSO). […] TBHP was used at final concentration of […]. Sulforaphane was used at a final concentration of 10 uM as a protective antioxidant control against TBHP induced ROS production. DCFDA Cellular ROS Detection Assay kit was purchased from […]. H-4-II-E rat liver hepatoma cell line was purchased from American Type Culture Collection (Manassas, Va.). H-4-II-E cells were grown in DMEM supplemented with 10% FBS with 100 IU/ml penicillin and 100 μg/ml streptomycin. Cultures were maintained at 37° C. in a humidified atmosphere of 5% CO2/95% air. H-4-II-E cells were seeded at 15,000-20,000 cells per well on 96-well plates. The next day cells were incubated with test peptides at 10 μM in 0.1% DMSO or sulforaphane at 10 uM and maintained at 37° C. in a humidified atmosphere of 5% CO2/95% air for 18-20 hours. After 18-20 hours of incubation the cells were loaded with DCFDA for 45 min. TBHP at 100 μM was then added to the appropriate wells for 1 hour. ROS activity was determined using a DCFDA Cellular ROS Detection Assay kit (Abcam) according to the manufacturer's instructions. Fluorescence in each sample well on the plate was measured using a Cytation 3 plate reader at Ex/Em=485/535 nm (BioTek, Winooski, Vt.). Activity was calculated relative to TBHP control. […] Activity was calculated relative to THBP treated control.

[2] = test system: CXCR4/CXCL12 induced p-MEK; assay: CXCR4/CXCL12 induced p-MEK in Jurkat cells (ELISA); type: cell-based, human; settings: 5 nM CXCL12, 5 min
Procedure, shortened: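 Jurkat cells in RPMI+GlutaMax containing 10% FBS and 1% penicillin/streptomycin, fresh or conditioned, were resuspended at 2×10^6 cells/ml and […] aliquots placed in tubes. After a 5 min stimulation they were pelleted, rinsed with HBSS and lysed with PMSF and protease/phosphatase inhibitors. Phospho-MEK1 (Ser217/221) was quantified by sandwich ELISA with absorbance read at 450 nm.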

Compound: CSCC[C@H](N)C(=O)N[C@@H](CC(C)C)C(=O)N[C@@H](CCCNC(=N)N)C(=O)N[C@@H](CCCNC(=N)N)C(=O)N[C@@H](Cc1ccc(O)cc1)C(=O)N[C@@H](Cc1c[nH]cn1)C(=O)N[C@@H](Cc1c[nH]cn1)C(=O)N[C@@H](CO)C(=O)N[C@H](C(=O)N[C@@H](CCCNC(=N)N)C(=O)N[C@@H](CO)C(=O)N[C@@H](CO)C(=O)N[C@@H](CC(C)C)C(=O)N[C@@H](CCCNC(=N)N)C(=O)N1CCC[C@H]1C(=O)N[C@@H](Cc1ccc(O)cc1)C(=O)N[C@H](C(=O)N[C@@H](CCCCN)C(=O)O)[C@@H](C)O)C(C)C [compound 2] (H-MLRRYHHSVRSSLRPYTK-OH; N-terminus and C-terminus assumed)
- viability at 10 μM [1]: 96.4%
- TBHP-Induced ROS, Percent of Control (Rat H-4-II-E Cells): 90.9%
- Percent Inhibition of CXCR4/CXCL12 Induced p-MEK (100 nM Test Article) [2]: −1%
- Percent Inhibition of CXCR4/CXCL12 Induced p-MEK (1 μM Test Article) [2]: 28%

Compound: CC(C)C[C@H](NC(=O)[C@H](CO)NC(=O)[C@H](CO)NC(=O)[C@H](CCCNC(=N)N)NC(=O)[C@@H](NC(=O)[C@H](CO)NC(=O)[C@H](Cc1c[nH]cn1)NC(=O)[C@H](Cc1c[nH]cn1)NC(=O)[C@H](Cc1ccc(O)cc1)NC(=O)[C@H](CCCNC(=N)N)NC(=O)[C@H](CCCNC(=N)N)NC(=O)[C@@H](N)CC(C)C)C(C)C)C(=O)N[C@@H](CCCNC(=N)N)C(=O)N1CCC[C@H]1C(=O)N[C@@H](Cc1ccc(O)cc1)C(=O)N[C@H](C(=O)N[C@@H](CCCCN)C(=O)O)[C@@H](C)O [compound 3] (H-LRRYHHSVRSSLRPYTK-OH; N-terminus and C-terminus assumed)
- viability at 10 μM [1]: 97.3%
- TBHP-Induced ROS, Percent of Control (Rat H-4-II-E Cells): 95.5%
- Percent Inhibition of CXCR4/CXCL12 Induced p-MEK (100 nM Test Article) [2]: 29%
- Percent Inhibition of CXCR4/CXCL12 Induced p-MEK (1 μM Test Article) [2]: 91%

Compound: CC(C)C[C@H](NC(=O)[C@H](CO)NC(=O)[C@H](CO)NC(=O)[C@H](CCCNC(=N)N)NC(=O)[C@@H](NC(=O)[C@H](CO)NC(=O)[C@H](Cc1c[nH]cn1)NC(=O)[C@H](Cc1c[nH]cn1)NC(=O)[C@H](Cc1ccc(O)cc1)NC(=O)[C@H](CCCNC(=N)N)NC(=O)[C@H](CCC(=O)O)NC(=O)[C@@H](N)CC(C)C)C(C)C)C(=O)N[C@@H](CCCNC(=N)N)C(=O)N1CCC[C@H]1C(=O)N[C@@H](Cc1ccc(O)cc1)C(=O)N[C@H](C(=O)N[C@@H](CCCCN)C(=O)O)[C@@H](C)O [compound 4] (H-LERYHHSVRSSLRPYTK-OH; N-terminus and C-terminus assumed)
- viability at 10 μM [1]: 96%
- TBHP-Induced ROS, Percent of Control (Rat H-4-II-E Cells): 95.8%
- Percent Inhibition of CXCR4/CXCL12 Induced p-MEK (100 nM Test Article) [2]: 40%
- Percent Inhibition of CXCR4/CXCL12 Induced p-MEK (1 μM Test Article) [2]: 76%

Compound: CC(C)C[C@H](NC(=O)[C@H](CO)NC(=O)[C@H](CO)NC(=O)[C@H](CCCNC(=N)N)NC(=O)[C@@H](C)NC(=O)[C@H](CO)NC(=O)[C@H](Cc1c[nH]cn1)NC(=O)[C@H](Cc1c[nH]cn1)NC(=O)[C@H](Cc1ccc(O)cc1)NC(=O)[C@H](CCCNC(=N)N)NC(=O)[C@H](CCC(=O)O)NC(=O)[C@@H](N)CC(C)C)C(=O)N[C@@H](CCCNC(=N)N)C(=O)N1CCC[C@H]1C(=O)N[C@@H](Cc1ccc(O)cc1)C(=O)N[C@H](C(=O)O)[C@@H](C)O [compound 5] (H-LERYHHS[dA]RSSLRPYT-OH; N-terminus and C-terminus assumed)
- viability at 10 μM [1]: 98.8%
- TBHP-Induced ROS, Percent of Control (Rat H-4-II-E Cells): 99.2%
- Percent Inhibition of CXCR4/CXCL12 Induced p-MEK (100 nM Test Article) [2]: −20%
- Percent Inhibition of CXCR4/CXCL12 Induced p-MEK (1 μM Test Article) [2]: 24%
